The values that follow come from PMC3341351, “Down-Regulation of GABAA Receptor via Promiscuity with the Vasoactive Peptide Urotensin II Receptor. Potential Involvement in Astrocyte Plasticity” (PLoS ONE, 2012).

Like-named read-outs stand apart in the source and are kept apart here. Where a SMILES comes first, the peptide text is derived from it. Bridges are numbered along the chain shown (N, C = ends). [ ]: non-standard residue; d: D form. pGlu = O=C1CC[C@@H](C(=O)O)N1

Common to all, as to format: cell-based
Assay [1] addresses T1, α2β3γ2 GABAAR co-expressed with human UT (Homo sapiens, UniProt Q9UKP6).
T1 construct: expressed in transfected cells; host or cells: CHO-K1 stably expressing human UT (pIRES-neo2-UT), transiently nucleofected with GABAAR subunit cDNAs
T1 sequence (Q9UKP6 1-389): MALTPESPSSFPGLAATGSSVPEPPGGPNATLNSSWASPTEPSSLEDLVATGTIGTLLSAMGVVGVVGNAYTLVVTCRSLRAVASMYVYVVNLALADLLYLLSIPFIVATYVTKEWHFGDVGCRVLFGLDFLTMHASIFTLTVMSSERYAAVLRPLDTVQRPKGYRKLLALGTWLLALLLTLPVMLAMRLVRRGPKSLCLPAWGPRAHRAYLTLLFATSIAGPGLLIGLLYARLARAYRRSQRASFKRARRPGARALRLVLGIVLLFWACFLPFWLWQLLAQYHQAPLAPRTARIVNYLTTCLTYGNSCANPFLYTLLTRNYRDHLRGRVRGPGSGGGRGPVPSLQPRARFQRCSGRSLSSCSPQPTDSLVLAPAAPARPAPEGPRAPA
The assay is described as follows: Patch-clamp of Iso-evoked current in CHO-UT co-expressing α2β3γ2 GABAAR (CHO-UT-GABAAR). To be noted: for Current inhibition by GABAAR antagonists: SR95531 10^−5 M, picrotoxin 10^−4 M. On the procedure: CHO-K1 cell lines were obtained from American Type Culture Collection (Manassas, VA, USA). The human UT stable CHO (CHO-UT) was generously provided by Dr Christophe Dubessy (Inserm, Rouen University, France) et generated by CHO electroporation with 20 µg pIRES-neo2-UT DNA and 500 µg sterile sonicated salmon sperm DNA using the EasyJect One electroporation system (Equibio, Angleur, Belgium), followed by repetitive rounds of limiting dilution of cells in G-418 (400 µg/ml) for selection. Normal or stable CHO was grown in Ham-F12 medium supplemented with 10% FBS, 1% antibiotic-antimicotic solution and 2 mM glutamine, at 37°C in a humidified incubator with an atmosphere of 5% CO2. The stable CHO-UT medium was supplemented with the antibiotic G-418 (40 µg/ml).
(§1) For transfection, cells were trypsinized (0.05%), triturated in HamF-12 containing 10% FBS media, pelleted by centrifugation, resuspended in 100 µl solution V for nucleofection by an Amaxa Nucleofector Device (Köln, Germany; set to program U-016). Experiments were performed on normal CHO or on the stable CHO-UT cells and transiently transfected with combinations of cDNA encoding α2β3γ2, α2β3γ1, α2β1γ2, α2β3γ1, α2β3, β3γ2 (4 µg of cDNA total/transfection) GABAAR subunits. Cells were seeded on 14-mm poly-L-lysine-coated glass bottom insert dishes at 5×10^5 cells in a volume of 0.5 ml/dish. Cells were incubated overnight at 37°C in a humidified incubator (5% CO2) during 16 h before electrophysiological or immunocytochemical experiments.
(§2) GABAA receptor cDNA clones; α2, β1, β3, γ1 and γ2L engineered into the expression vector pCDM8 ([…], β1, γ2) or pcDNA/Amp (β3, γ1), were generously provided by Dr Wingrove (Merk Sharp and Dohme, Harlow, UK). To obtain β3 ^HA or γ2 ^HA epitope-tagged subunits, β3 or γ2 cDNA was amplified and the PCR product was subcloned using the SalI and NotI sites of pCMV-HA (Table S2) after digestion by the same restriction enzymes.
(§3) The conventional whole-cell configuration of the patch-clamp technique was used to study the GABA-gated currents in astrocytes and granule neurons, UT stably transfected CHO, CHO-UT, and CHO transiently transfected with diverse variants of UT and GABAAR subunits. After 24-h transfection, cell culture coverslips were placed in a small chamber (1.5 ml) on a stage of a right microscope DMLFSA (Leica, Heidelberg, Germany) and superfused continuously with the following bath solution containing (in mM): NaCl, 150; KCl, 2.5; HEPES, 5; CaCl2, 2; MgCl2, 1; glucose, 10 (pH 7.4 adjusted with NaOH). The patch pipettes were fabricated from 1.5 mm (outer diameter) soft glass tubes on a two-step vertical pipette puller (List-Medical, L/M-3P-A, Darmstadt, Germany). […] ATP and GTP were added to the internal solution used to fill electrode just before recording. All recordings were obtained at RT with cells voltage-clamped at −70 mV. The GABAA receptor agonist isoguvacine was prepared in the extracellular solution and was applied to cells by pneumatic pressure ejection. To prevent desenzitization, isoguvacine was more often ejected during 5 s at 2-min intervals. ATP, GTP, or guanosine 5′-O-(2-thiodiphosphate) (GDPβS) were administered through the patch pipette solution. We investigated the effect of competitive inhibition of GDP-GTP exchange by including GDPβS in the pipette solution (in addition to the normal amount of GTP). For GDPβS and the KIC, immediately following patch rupture, GABA current recordings were performed and the experiment was commenced after an equilibration period of 15 min.
All peptide ligands, inhibitors or allosteric modulators of the GABAA receptor function were applied via gravity through a plastic tubing positioned in the vicinity of the cell body in order to maintain a sustained perfusion. In these conditions, drugs could reach the cell of interest after 30 s of perfusion. Isoguvacine was applied focally by pneumatic pressure ejection from a micropipette.
On the technique in general: In patch-clamp work, channel activity is measured electrically.

Assay [2] concerns α2β3γ2 GABAAR in the absence of UT. The assay is described as follows: Patch-clamp of Iso-evoked current in CHO expressing α2β3γ2 GABAAR without UT. To be noted: DMCM 10^−5 M; hUII and URP 10^−8 M; [Orn^5]-URP and palosuran 10^−6 M; Iso 10^−4 M, 2 s; n = 3–18. On the procedure:
as §1, §2
as §3, with “min. […]” for “min.”

Assay [3] concerns the target T2, GABAAR in cerebellar astrocytes (UT co-expressed) (Rattus norvegicus, UniProt P49684).
T2 construct: Astrocytes, recognized by strong GFAP staining show UT immunoreactivity; endogenous in cells; host or cells: primary rat (P7 Wistar) cerebellar astrocytes co-cultured with cerebellar granule neurons
T2 sequence (P49684 1-386): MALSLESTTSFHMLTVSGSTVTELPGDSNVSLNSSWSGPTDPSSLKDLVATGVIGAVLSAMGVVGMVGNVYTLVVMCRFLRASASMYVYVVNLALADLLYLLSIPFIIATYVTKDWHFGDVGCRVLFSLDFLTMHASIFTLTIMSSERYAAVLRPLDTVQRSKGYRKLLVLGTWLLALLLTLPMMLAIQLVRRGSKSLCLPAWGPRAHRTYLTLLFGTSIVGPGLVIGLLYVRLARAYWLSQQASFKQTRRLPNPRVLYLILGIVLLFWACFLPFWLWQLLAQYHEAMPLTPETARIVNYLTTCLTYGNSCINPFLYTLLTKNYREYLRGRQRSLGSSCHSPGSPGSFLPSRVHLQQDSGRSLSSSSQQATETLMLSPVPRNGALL
In words: Whole-cell patch-clamp of isoguvacine (Iso)-evoked depolarization/chloride current in cerebellar astrocytes co-cultured with granule neurons. The conditions noted are these: for inhibition at 0.1 µM: rUII 10^−7 M, 40 s, Iso 10^−4 M, mean ± SEM, n = 5. The protocol: Primary Cell Culture of astrocytes and astrocyte-neurone co-culture
Primary cultures of astrocytes were prepared as previously described. Briefly, cerebellum from 7-day-old (P7) Wistar rats were collected in DMEM/Ham-F12 (2∶1, v/v) culture medium supplemented with 2 mM glutamine, 1% insulin, 5 mM HEPES, 0.4% D(+)-glucose and 1% of the antibiotic-antimycotic solution. The tissues were disaggregated mechanically with a syringue equipped with a 1-mm gauge needle, and filtered through a 100-µm pore size mesh filter (Falcon, Becton Dickinson, Grenoble, France). Dissociated cells were resuspended in culture medium supplemented with 10% heat-inactivated FBS and seeded in 150-cm^2 culture flasks (Falcon) at a density of 20×10^6 cells/flask. Cells were incubated at 37°C in a humidified atmosphere (5% CO2) and the medium was changed twice a week. When cultures were confluent, the flasks were gently shaken on an orbital shaker at […] for 2 h. Dislodged cells were discarded and a second step of purification was performed at […] for 14–16 h. Remaining adhesive cells were collected by trypsination, centrifuged (800 g, 10 min) and plated in 150-cm^2 flasks. Suspended astrocytes were harvested and seeded in 24-well poly-L-lysine-coated plates. The purity of the cultures was previously assessed by counting the percentage of astrocytes immunostained with GFAP antibodies. The enriched cultures contained >99% astrocytes.
For astrocyte-neuron co-culture, granule cell cultures were prepared from cerebella of P7 Wistar rats as described previously. Isolated cells were plated on 14-mm culture dishes coated with poly-L-lysine (5 mM) at a density of 1.5×10^6 cells/dish and incubated at 37°C in a humidified atmosphere (5% CO2) for 1 to 10 days before use. Culture medium consisted of DMEM/Ham's F12 (75%/25%) supplemented with 10% FBS, 2 mM glutamine, 5 µg/ml insulin, 25 mM KCl and 1% of antibiotic-antimycotic solution. Co-cultures are obtained by seeding granule cells (1.5×10^6 cells/ml) on cerebellar astrocytes plated in 24-well plates after 12 hours. Co-cultures are maintained in the specific medium for neuron and incubated at 37°C in an humidified atmosphere (5% CO2) for several days.
as §3, with “min. […]” for “min.”

In the case of `O=C(O)CN(CC(=O)O)c1ccccc1OCCOc1ccccc1N(CC(=O)O)CC(=O)O` [BAPTA], in assay [1] (BAPTA 10^−4 M intracellular dialysis, n = 9), the “Reduction of hUII-induced long-term current inhibition” value is reported as 39.29±10.16%.
As to `CCc1c(C(=O)OC)ncc2[nH]c3cc(OC)c(OC)cc3c12` [DMCM, methyl 6,7-dimethoxy-4-ethyl-β-carboline-3-carboxylate], the “Effect on Iso-evoked current in the absence of UT” value in assay [2] is “induced inhibition of the current in most tested cells”.
For the molecule `Br.COc1ccc(-c2ccc(=N)n(CCCC(=O)O)n2)cc1` [SR95531], the “Current inhibition by GABAAR antagonists” value in assay [1] (Figure S1A) worked out at 76.92±10.35%.
For `CCCC(C)C1(CC)C(=O)NC(=O)NC1=O` (stereo not shown) [pentobarbital], the “Direct activation of chloride current” value in assay [1] (pentobarbital 10^−5 M, Figure S1A) is reported as “directly activated a chloride current”. The “Potentiation of the Iso-evoked current” value in assay [1] (pentobarbital 10^−5 M, reversible, Figure S1A) was 196.28±12.33%.
In the case of `CC[C@H](C)[C@H](NC(=O)[C@@H]1CSSC[C@H](NC(=O)[C@H](CCC(=O)O)NC(=O)[C@@H]2CCCN2C(=O)[C@H](C)NC(=O)[C@@H](NC(=O)CNC(=O)[C@H](Cc2c[nH]cn2)NC(=O)[C@@H]2CCC(=O)N2)[C@@H](C)O)C(=O)N[C@@H](Cc2ccccc2)C(=O)N[C@@H](Cc2c[nH]c3ccccc23)C(=O)N[C@@H](CCCCN)C(=O)N[C@@H](Cc2ccc(O)cc2)C(=O)N1)C(=O)O` [rUII] ([pGlu]HGTAPECFWKYCI-OH; disulfide 8-13), the EC50 (usually the concentration needed to bring the measured effect to its halfway point) in assay [3] (astrocytes, printed with a % sign before pM, read-out: EC50 for inhibition of the Iso-evoked current) came out at 43.6 ± 23.7 pM. Moreover, the inhibition (in general, the percentage by which the read-out fell short of the control) at 0.1 µM stood at 24.2 ± 7.5% in assay [3] (co-cultured astrocytes, read-out: Inhibition of the amplitude of the Iso-evoked depolarization) and 33 ± 8% in assay [3] (voltage clamp −60 mV, read-out: Inhibition of the amplitude of the Iso-evoked chloride current).
Turning to picrotoxin, in assay [1] (Figure S1A), the “Current inhibition by GABAAR antagonists” value was found to be 56.76±4.33%.

B1: UT^c-myc 319–389: peptidomimetic corresponding to the entire C-terminus cytosolic fragment of UT (protein, UniProt Q9UKP6 319-389, looked up, fragment)
chain: TRNYRDHLRGRVRGPGSGGGRGPVPSLQPRARFQRCSGRSLSSCSPQPTDSLVLAPAAPARPAPEGPRAPA
modifications: c-myc tag
Turning to B1, the “Effect of UT C-terminal peptidomimetic on fast and long-term effects of hUII on GABA-evoked current” value in assay [1] (UT^c-myc 319–389 expressed in CHO-UT-GABAAR, hUII 10^−8 M) is “completely inhibited the fast and long-term effects of hUII on the GABA-evoked current”.
